Results as given in the supplement of paper PMC8967900.

Tested on: KASUMI-10
Assay: selective drug sensitivity score (sDSS, relative to normal bone marrow) (sDSS (score)); higher = more potent and effective on the cell line relative to normal bone marrow cells
Details: 72 h
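Further: ALL cell lines in 384-well plates, five doses spanning 10,000-fold, each plate scaled between vehicle and 100 µmol/L benzalkonium chloride controls, sDSS an adapted area-under-curve metric.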

SMILES | selective drug sensitivity score
Cc1ccc(NC(=O)c2ccc(CN3CCN(C)CC3)cc2)cc1Nc1nc(-c2cccnc2)cs1 [Masitinib] (top concentration 10000 nM) | -3.48
CCN(CC)CCCC(C)Nc1c2ccc(Cl)cc2nc2ccc(OC)cc12 (stereo not given) [Mepacrine] (top concentration 50000 nM) | 0.6
COc1ccc(-c2ccc3ncc4c(c3c2)n(-c2ccc(N3CCNCC3)c(C(F)(F)F)c2)c(=O)n4C)cn1 [NVP-BGT226] (top concentration 1000 nM) | -0.18
COc1nc(N)nc2c1ncn2[C@@H]1O[C@H](CO)[C@@H](O)[C@@H]1O [Nelarabine] (top concentration 10000 nM) | -5.82
Cc1cn(-c2cc(NC(=O)c3ccc(C)c(Nc4nccc(-c5cccnc5)n4)c3)cc(C(F)(F)F)c2)cn1 [Nilotinib] (top concentration 10000 nM) | 0
NC(=O)c1cccc2cn(-c3ccc(C4CCCNC4)cc3)nc12 (stereo not given) [Niraparib] (top concentration 10000 nM) | 1.58
COc1ccc(C[C@H](NC(=O)[C@H](C)NC(=O)CN2CCOCC2)C(=O)N[C@@H](Cc2ccccc2)C(=O)[C@@]2(C)CO2)cc1 [ONX-0914] (top concentration 10000 nM) | 0.9
CC(=O)c1cnc2ccc(-c3cc(Cl)c(O)c(Cl)c3)nc2c1N[C@H]1CC[C@H](CN(C)C)CC1 [OTS167] (top concentration 1000 nM) | 5.88
COC(=O)C[C@](O)(CCCC(C)(C)O)C(=O)O[C@@H]1C(OC)=C[C@]23CCCN2CCc2cc4c(cc2[C@H]13)OCO4 [Omacetaxine] (top concentration 10000 nM) | 4.82

Tested on: KASUMI-2
Assay: as above
Details: 72 h

SMILES | selective drug sensitivity score
CCOC(=O)CCNc1cc(N2CCc3ccccc3CC2)nc(-c2ccccn2)n1 [GSK-J4] (top concentration 100000 nM) | -10.8
Cc1cc(Nc2cc(CN3CCOCC3)c3nc(C)c(Cc4ccc(Cl)cc4F)n3n2)n[nH]1 [Gandotinib] (top concentration 10000 nM) | 7.18
NC(=O)NO [Hydroxyurea] (top concentration 1000000 nM) | -2.14
Cc1ccc(NC(=O)c2ccc(CN3CCN(C)CC3)cc2)cc1Nc1nccc(-c2cccnc2)n1 [Imatinib] (top concentration 10000 nM) | -0.44
CC(C)NC[C@@H](C(=O)N1CCN(c2ncnc3c2[C@H](C)C[C@H]3O)CC1)c1ccc(Cl)cc1 [Ipatasertib] (top concentration 10000 nM) | 7.9
CCC(C)n1ncn(-c2ccc(N3CCN(c4ccc(OCC5COC(Cn6cncn6)(c6ccc(Cl)cc6Cl)O5)cc4)CC3)cc2)c1=O (stereo not given) [Itraconazole] (top concentration 5000 nM) | -3.22
Cc1sc2c(c1C)C(c1ccc(Cl)cc1)=N[C@@H](CC(=O)OC(C)(C)C)c1nnc(C)n1-2 [JQ1] (top concentration 10000 nM) | -5.08
CCNC(=O)c1noc(-c2cc(C(C)C)c(O)cc2O)c1-c1ccc(CN2CCOCC2)cc1 [Luminespib] (top concentration 1000 nM) | 6.5
O=C(c1cccc(Cl)c1F)N1CCN(Cc2cccc(Nc3nccs3)n2)CC1 [MK-8745] (top concentration 10000 nM) | 6.8
Cc1ccc(NC(=O)c2ccc(CN3CCN(C)CC3)cc2)cc1Nc1nc(-c2cccnc2)cs1 [Masitinib] (top concentration 10000 nM) | -4.38
CCN(CC)CCCC(C)Nc1c2ccc(Cl)cc2nc2ccc(OC)cc12 (stereo not given) [Mepacrine] (top concentration 50000 nM) | -9.5
COc1ccc(-c2ccc3ncc4c(c3c2)n(-c2ccc(N3CCNCC3)c(C(F)(F)F)c2)c(=O)n4C)cn1 [NVP-BGT226] (top concentration 1000 nM) | 7.92
COc1nc(N)nc2c1ncn2[C@@H]1O[C@H](CO)[C@@H](O)[C@@H]1O [Nelarabine] (top concentration 10000 nM) | -10.2
Cc1cn(-c2cc(NC(=O)c3ccc(C)c(Nc4nccc(-c5cccnc5)n4)c3)cc(C(F)(F)F)c2)cn1 [Nilotinib] (top concentration 10000 nM) | 4.1
NC(=O)c1cccc2cn(-c3ccc(C4CCCNC4)cc3)nc12 (stereo not given) [Niraparib] (top concentration 10000 nM) | 4.28
COc1ccc(C[C@H](NC(=O)[C@H](C)NC(=O)CN2CCOCC2)C(=O)N[C@@H](Cc2ccccc2)C(=O)[C@@]2(C)CO2)cc1 [ONX-0914] (top concentration 10000 nM) | 0.6
CC(=O)c1cnc2ccc(-c3cc(Cl)c(O)c(Cl)c3)nc2c1N[C@H]1CC[C@H](CN(C)C)CC1 [OTS167] (top concentration 1000 nM) | 4.58
COC(=O)C[C@](O)(CCCC(C)(C)O)C(=O)O[C@@H]1C(OC)=C[C@]23CCCN2CCc2cc4c(cc2[C@H]13)OCO4 [Omacetaxine] (top concentration 10000 nM) | 10.8

Tested on: KASUMI-9
Assay: as above
Details: 72 h

SMILES | selective drug sensitivity score
CCOC(=O)CCNc1cc(N2CCc3ccccc3CC2)nc(-c2ccccn2)n1 [GSK-J4] (top concentration 100000 nM) | -7.88
Cc1cc(Nc2cc(CN3CCOCC3)c3nc(C)c(Cc4ccc(Cl)cc4F)n3n2)n[nH]1 [Gandotinib] (top concentration 10000 nM) | 9.88
NC(=O)NO [Hydroxyurea] (top concentration 1000000 nM) | 4.26
Cc1ccc(NC(=O)c2ccc(CN3CCN(C)CC3)cc2)cc1Nc1nccc(-c2cccnc2)n1 [Imatinib] (top concentration 10000 nM) | -0.44
CC(C)NC[C@@H](C(=O)N1CCN(c2ncnc3c2[C@H](C)C[C@H]3O)CC1)c1ccc(Cl)cc1 [Ipatasertib] (top concentration 10000 nM) | -0.2
CCC(C)n1ncn(-c2ccc(N3CCN(c4ccc(OCC5COC(Cn6cncn6)(c6ccc(Cl)cc6Cl)O5)cc4)CC3)cc2)c1=O (stereo not given) [Itraconazole] (top concentration 5000 nM) | -4.12
Cc1sc2c(c1C)C(c1ccc(Cl)cc1)=N[C@@H](CC(=O)OC(C)(C)C)c1nnc(C)n1-2 [JQ1] (top concentration 10000 nM) | 11.8
CCNC(=O)c1noc(-c2cc(C(C)C)c(O)cc2O)c1-c1ccc(CN2CCOCC2)cc1 [Luminespib] (top concentration 1000 nM) | -3
O=C(c1cccc(Cl)c1F)N1CCN(Cc2cccc(Nc3nccs3)n2)CC1 [MK-8745] (top concentration 10000 nM) | 13.2
Cc1ccc(NC(=O)c2ccc(CN3CCN(C)CC3)cc2)cc1Nc1nc(-c2cccnc2)cs1 [Masitinib] (top concentration 10000 nM) | 1.22
CCN(CC)CCCC(C)Nc1c2ccc(Cl)cc2nc2ccc(OC)cc12 (stereo not given) [Mepacrine] (top concentration 50000 nM) | -3.6
COc1ccc(-c2ccc3ncc4c(c3c2)n(-c2ccc(N3CCNCC3)c(C(F)(F)F)c2)c(=O)n4C)cn1 [NVP-BGT226] (top concentration 1000 nM) | 8.42
COc1nc(N)nc2c1ncn2[C@@H]1O[C@H](CO)[C@@H](O)[C@@H]1O [Nelarabine] (top concentration 10000 nM) | 1.98
Cc1cn(-c2cc(NC(=O)c3ccc(C)c(Nc4nccc(-c5cccnc5)n4)c3)cc(C(F)(F)F)c2)cn1 [Nilotinib] (top concentration 10000 nM) | 4.6
NC(=O)c1cccc2cn(-c3ccc(C4CCCNC4)cc3)nc12 (stereo not given) [Niraparib] (top concentration 10000 nM) | 5.78
COc1ccc(C[C@H](NC(=O)[C@H](C)NC(=O)CN2CCOCC2)C(=O)N[C@@H](Cc2ccccc2)C(=O)[C@@]2(C)CO2)cc1 [ONX-0914] (top concentration 10000 nM) | -4.1
CC(=O)c1cnc2ccc(-c3cc(Cl)c(O)c(Cl)c3)nc2c1N[C@H]1CC[C@H](CN(C)C)CC1 [OTS167] (top concentration 1000 nM) | 3.58
COC(=O)C[C@](O)(CCCC(C)(C)O)C(=O)O[C@@H]1C(OC)=C[C@]23CCCN2CCc2cc4c(cc2[C@H]13)OCO4 [Omacetaxine] (top concentration 10000 nM) | 1.12
